According to ChEMBL document CHEMBL4483862, “Open-source discovery of chemical leads for next-generation chemoprotective antimalarials” (2018):

Test system: Plasmodium berghei
Assay: Luciferase/luciferin-expressing antifolate-resistant parasites were used to infect a culture of HepG2 cells that were pre-incubated with compounds. Infected hepatocytes emit light due to the luciferase reaction. Assay results are presented as the percent inhibition of light emission compared to control. […]
Format: functional
Details: sporozoite; for IC90: read-out: LUCIFERASE INFECTION ASSAY - IC90

In the case of `Cc1ccsc1/C=N/Nc1ncc(Cl)cc1Cl`, the IC50 (FFLUC_HILL_SLOPE 11.7, FFLUC_R_SQUARED 0.18, PBLUC_HILL_SLOPE 22.2, PBLUC_R_SQUARED 0.267, read-out: LUCIFERASE INFECTION ASSAY - IC50) is reported as 9.19 µM and the IC90 is reported as > 10 µM.
In the case of `COc1ccc(CCN2C(=O)CS/C2=N\c2ccc(C)cc2C)cc1OC`, the IC50 (FFLUC_HILL_SLOPE 11.8, FFLUC_R_SQUARED 0.0733, HEPG2TOX_HILL_SLOPE 1.46, HEPG2TOX_R_SQUARED 0.879, PBLUC_HILL_SLOPE 2.1, PBLUC_R_SQUARED 0.331, read-out: LUCIFERASE INFECTION ASSAY - IC50) is reported as 6.08 µM and the IC90 is reported as > 8.58 µM.
In the case of `Cc1ccc(C(=O)C(=O)Nc2cc(S(=O)(=O)N3CCCCC3)ccc2OC(C)C)cc1`, the IC50 (FFLUC_HILL_SLOPE 11.8, FFLUC_R_SQUARED 0.613, read-out: LUCIFERASE INFECTION ASSAY - IC50) is reported as > 10 µM and the IC90 is reported as > 10 µM.
With `CCC(C)(C)c1ccc(OCC(=O)Nc2ccc(Cl)c(N)c2)c(C(C)(C)CC)c1` the IC50 (FFLUC_HILL_SLOPE 11.8, FFLUC_R_SQUARED 0.0263, PBLUC_HILL_SLOPE 15.2, PBLUC_R_SQUARED 0.794, read-out: LUCIFERASE INFECTION ASSAY - IC50) was 2.66 µM and the IC90 was 3.07 µM.
With `Cc1nsc(N)c1C(=O)OCc1cc(=O)n2c3c(sc2n1)CCCC3` the IC50 (FFLUC_HILL_SLOPE 11.9, FFLUC_R_SQUARED 0.297, read-out: LUCIFERASE INFECTION ASSAY - IC50) was > 10 µM and the IC90 was > 10 µM.
With `COc1cc2c(cc1OC)C(c1cccs1)N(CC(=O)Nc1cc([N+](=O)[O-])ccc1C)CC2` (centres undefined) the IC50 (FFLUC_HILL_SLOPE 11.9, FFLUC_R_SQUARED 0.176, HEPG2TOX_HILL_SLOPE 0.633, HEPG2TOX_R_SQUARED 0.848, PBLUC_HILL_SLOPE 2.15, PBLUC_R_SQUARED 0.479, read-out: LUCIFERASE INFECTION ASSAY - IC50) was 0.944 µM and the IC90 was 2.62 µM.
With `Cc1ccc2nc(-c3ccc(NC(=O)COC(=O)c4oc5ccccc5c4COC(C)C)cc3)sc2c1` the IC50 (FFLUC_HILL_SLOPE 11.7, FFLUC_R_SQUARED 0.82, PBLUC_HILL_SLOPE 2.16, PBLUC_R_SQUARED 0.259, read-out: LUCIFERASE INFECTION ASSAY - IC50) was 9.03 µM and the IC90 was > 10 µM.
For `CC(Sc1nccn1-c1cccc(F)c1)C(=O)Nc1ccc(N2CCOCC2)cc1` (centres undefined), the IC50 (FFLUC_HILL_SLOPE 11.8, FFLUC_R_SQUARED 0.0999, read-out: LUCIFERASE INFECTION ASSAY - IC50) was > 10 µM and the IC90 was > 10 µM.
With `Cn1c(=O)/c(=C\c2cn(-c3ccccc3)nc2-c2ccccc2)s/c1=C\C(=O)C(C)(C)C` the IC50 (FFLUC_HILL_SLOPE 11.8, FFLUC_R_SQUARED 0.797, read-out: LUCIFERASE INFECTION ASSAY - IC50) was > 10 µM and the IC90 was > 10 µM.
In the case of `N#CC(C(=O)CSc1nnc(-c2ccc(F)cc2)c2ccccc12)=C1Nc2ccccc2N1`, the IC50 (FFLUC_HILL_SLOPE 12, FFLUC_R_SQUARED 0.136, read-out: LUCIFERASE INFECTION ASSAY - IC50) is reported as > 10 µM and the IC90 is reported as > 10 µM.
In the case of `COc1cc(OC)c(C2CCN(C(=O)c3nn(-c4ccc(F)cc4)c4c3CCCC4)CC2)c(OC)c1`, the IC50 (FFLUC_HILL_SLOPE 11.8, FFLUC_R_SQUARED 0.584, PBLUC_HILL_SLOPE 10.3, PBLUC_R_SQUARED 0.0293, read-out: LUCIFERASE INFECTION ASSAY - IC50) is reported as > 10 µM and the IC90 is reported as > 10 µM.
`Cn1nc(C(F)(F)F)cc1-c1ccc(/C=C(\C#N)S(=O)(=O)c2ccc(Cl)cc2)s1` was tested, and the IC50 (FFLUC_HILL_SLOPE 11.9, FFLUC_R_SQUARED 0.391, read-out: LUCIFERASE INFECTION ASSAY - IC50) was > 7.21 µM and the IC90 was > 7.21 µM.
For `Cc1c(S(=O)(=O)c2ccc(Cl)cc2)csc1C(=O)Nc1cc(C(F)(F)F)cc(C(F)(F)F)c1`, the IC50 (FFLUC_HILL_SLOPE 11.9, FFLUC_R_SQUARED 0.653, HEPG2TOX_HILL_SLOPE 12.6, HEPG2TOX_R_SQUARED 0.751, PBLUC_HILL_SLOPE 2.69, PBLUC_R_SQUARED 0.583, read-out: LUCIFERASE INFECTION ASSAY - IC50) was 3.24 µM and the IC90 was > 6.25 µM.
With `O=C(Nc1ccc(Cl)cc1)Nc1cc(Cl)c(-n2cccc2)cc1Cl` the IC50 (FFLUC_HILL_SLOPE 11.8, FFLUC_R_SQUARED 0.707, PBLUC_HILL_SLOPE 1.68, PBLUC_R_SQUARED 0.178, read-out: LUCIFERASE INFECTION ASSAY - IC50) was 6.82 µM and the IC90 was > 8.67 µM.
In the case of `NNc1nn2c(=O)c3c(-c4ccccc4)csc3nc2c2ccccc12`, the IC50 (FFLUC_HILL_SLOPE 12, FFLUC_R_SQUARED 0.305, PBLUC_HILL_SLOPE 10.1, PBLUC_R_SQUARED 0.389, read-out: LUCIFERASE INFECTION ASSAY - IC50) is reported as 8.61 µM and the IC90 is reported as > 10 µM.
`CC(C)c1ccc(NC(=O)C2=CN3CCN(Cc4ccccc4)C(=O)N=C3O2)cc1` was tested, and the IC50 (FFLUC_HILL_SLOPE 11.9, FFLUC_R_SQUARED 0.0164, read-out: LUCIFERASE INFECTION ASSAY - IC50) was > 10 µM and the IC90 was > 10 µM.
In the case of `Cc1cccc(NC(=S)Nc2cn(-c3ccccc3)nc2-c2ccc(Br)cc2)c1C`, the IC50 (FFLUC_HILL_SLOPE 12, FFLUC_R_SQUARED 0.538, PBLUC_HILL_SLOPE 15.7, PBLUC_R_SQUARED 0.516, read-out: LUCIFERASE INFECTION ASSAY - IC50) is reported as 9.52 µM and the IC90 is reported as > 10 µM.
With `COc1ccc(CCn2nc(C(=O)NC3CC3)c3c2CCN(C(=O)c2cc4cc(C)ccc4[nH]2)C3)cc1` the IC50 (FFLUC_HILL_SLOPE 11.9, FFLUC_R_SQUARED 0.277, PBLUC_HILL_SLOPE 2.4, PBLUC_R_SQUARED 0.763, read-out: LUCIFERASE INFECTION ASSAY - IC50) was 2.8 µM and the IC90 was > 6.63 µM.
`Cc1nn(-c2ccccc2)c2nc(Cl)c(C3Nc4ccccc4-c4nc5ccccc5n43)cc12` (centres undefined) was tested, and the IC50 (FFLUC_HILL_SLOPE 11.9, FFLUC_R_SQUARED 0.792, read-out: LUCIFERASE INFECTION ASSAY - IC50) was > 10 µM and the IC90 was > 10 µM.
In the case of `N#Cc1nc(=O)n(-c2ccc(OC(F)(F)F)cc2)c(N)c1/N=C/c1ccc(C(F)(F)F)cc1`, the IC50 (FFLUC_HILL_SLOPE 11.8, FFLUC_R_SQUARED 0.146, HEPG2TOX_HILL_SLOPE 2.94, HEPG2TOX_R_SQUARED 0.795, PBLUC_HILL_SLOPE 2.18, PBLUC_R_SQUARED 0.738, read-out: LUCIFERASE INFECTION ASSAY - IC50) is reported as 1.76 µM and the IC90 is reported as 4.82 µM.
With `CCOc1ccc(-c2n[nH]c3c2C(c2ccccc2)N(c2ccccc2)C3=O)cc1` (centres undefined) the IC50 (FFLUC_HILL_SLOPE 11.9, FFLUC_R_SQUARED 0.867, HEPG2TOX_HILL_SLOPE 2.22, HEPG2TOX_R_SQUARED 0.878, read-out: LUCIFERASE INFECTION ASSAY - IC50) was > 8.34 µM and the IC90 was > 8.34 µM.
For `CCOC(=O)c1c(-c2cccs2)csc1NC(=O)c1c(S)n(-c2ccccc2C)c2ccc(C)c[n+]12`, the IC50 (FFLUC_HILL_SLOPE 11.9, FFLUC_R_SQUARED 0.481, read-out: LUCIFERASE INFECTION ASSAY - IC50) was > 10 µM and the IC90 was > 10 µM.
For `COc1cc2ccccc2cc1C(=O)OC(C(=O)Nc1ccc(C)c(Cl)c1)c1ccccc1` (centres undefined), the IC50 (FFLUC_HILL_SLOPE 12, FFLUC_R_SQUARED 0.255, PBLUC_HILL_SLOPE 12.6, PBLUC_R_SQUARED 0.137, read-out: LUCIFERASE INFECTION ASSAY - IC50) was > 10 µM and the IC90 was > 10 µM.
`CC(C1CC2CCC1C2)n1c(SCc2nnc(-c3ccccc3)o2)nnc1-c1ccco1` (centres undefined) was tested, and the IC50 (FFLUC_HILL_SLOPE 12, FFLUC_R_SQUARED 0.233, read-out: LUCIFERASE INFECTION ASSAY - IC50) was > 10 µM and the IC90 was > 10 µM.
`COc1ccc(OCCN2CCN(CC(=O)Nc3nc(-c4c[nH]c5ccccc45)cs3)CC2)cc1` gave an IC50 (FFLUC_HILL_SLOPE 11.8, FFLUC_R_SQUARED 0.598, PBLUC_HILL_SLOPE 24.3, PBLUC_R_SQUARED 0.264, read-out: LUCIFERASE INFECTION ASSAY - IC50) of 9.11 µM and an IC90 of 9.98 µM.
In the case of `O=C(Nc1ncccc1OCc1ccc(Cl)c(Cl)c1)c1cc(Cl)cc(Cl)c1`, the IC50 (FFLUC_HILL_SLOPE 11.8, FFLUC_R_SQUARED 0.202, PBLUC_HILL_SLOPE 16.7, PBLUC_R_SQUARED 0.189, read-out: LUCIFERASE INFECTION ASSAY - IC50) is reported as > 7.46 µM and the IC90 is reported as > 7.46 µM.
`COc1ccc(Cl)cc1C(=O)NNC(=O)c1oc2ccccc2c1CSC1CCCCC1` was tested, and the IC50 (FFLUC_HILL_SLOPE 11.7, FFLUC_R_SQUARED 0.493, read-out: LUCIFERASE INFECTION ASSAY - IC50) was > 10 µM and the IC90 was > 10 µM.
With `Cc1ccc(CCC2CCN(C(=O)c3ccc(NS(=O)(=O)c4cccs4)cc3O)CC2)cc1` the IC50 (FFLUC_HILL_SLOPE 12, FFLUC_R_SQUARED 0.0293, HEPG2TOX_HILL_SLOPE 12.4, HEPG2TOX_R_SQUARED 0.101, read-out: LUCIFERASE INFECTION ASSAY - IC50) was > 10 µM and the IC90 was > 10 µM.
`COc1ccc(OC)c(/C=C/C(=O)Nc2cc(C(F)(F)F)ccc2Oc2ccc(Br)cc2)c1` was tested, and the IC50 (FFLUC_HILL_SLOPE 11.8, FFLUC_R_SQUARED 0.49, HEPG2TOX_HILL_SLOPE 2.88, HEPG2TOX_R_SQUARED 0.666, read-out: LUCIFERASE INFECTION ASSAY - IC50) was > 10 µM and the IC90 was > 10 µM.
`CC(C)c1ccccc1N(C(=O)Cc1ccc(-c2ccccc2)cc1)c1nc2ccccc2s1` was tested, and the IC50 (FFLUC_HILL_SLOPE 11.9, FFLUC_R_SQUARED 0.677, HEPG2TOX_HILL_SLOPE 16.8, HEPG2TOX_R_SQUARED 0.508, PBLUC_HILL_SLOPE 1.31, PBLUC_R_SQUARED 0.0526, read-out: LUCIFERASE INFECTION ASSAY - IC50) was 6.43 µM and the IC90 was > 10 µM.
In the case of `Cc1cc(C(=O)COC(=O)/C=C/c2cn(C)c(=O)n(C)c2=O)c(C)n1CCc1ccc(Cl)cc1`, the IC50 (FFLUC_HILL_SLOPE 11.7, FFLUC_R_SQUARED 0.825, read-out: LUCIFERASE INFECTION ASSAY - IC50) is reported as > 10 µM and the IC90 is reported as > 10 µM.
In the case of `O=C(OCc1ccccc1)C1=C2Sc3ccccc3N2C(=O)NC1(c1ccccc1)C(F)(F)F` (centres undefined), the IC50 (FFLUC_HILL_SLOPE 11.9, FFLUC_R_SQUARED 0.439, PBLUC_HILL_SLOPE 2.55, PBLUC_R_SQUARED 0.528, read-out: LUCIFERASE INFECTION ASSAY - IC50) is reported as 6.8 µM and the IC90 is reported as > 10 µM.
